Values quoted from earlier work in patent US9486463B2, “Chemosensory receptor ligand-based therapies” (AMBRA BIOSCIENCE LLC, priority 2010, dated 2016).

How the values were obtained:
sweet receptor = target: T1, sweet receptor (Homo sapiens, UniProt Q7RTX0+Q8TE23); settings: relative sweetness on a weight comparison basis to sucrose (=1.0)
T1 sequence (Q8TE23 20-839): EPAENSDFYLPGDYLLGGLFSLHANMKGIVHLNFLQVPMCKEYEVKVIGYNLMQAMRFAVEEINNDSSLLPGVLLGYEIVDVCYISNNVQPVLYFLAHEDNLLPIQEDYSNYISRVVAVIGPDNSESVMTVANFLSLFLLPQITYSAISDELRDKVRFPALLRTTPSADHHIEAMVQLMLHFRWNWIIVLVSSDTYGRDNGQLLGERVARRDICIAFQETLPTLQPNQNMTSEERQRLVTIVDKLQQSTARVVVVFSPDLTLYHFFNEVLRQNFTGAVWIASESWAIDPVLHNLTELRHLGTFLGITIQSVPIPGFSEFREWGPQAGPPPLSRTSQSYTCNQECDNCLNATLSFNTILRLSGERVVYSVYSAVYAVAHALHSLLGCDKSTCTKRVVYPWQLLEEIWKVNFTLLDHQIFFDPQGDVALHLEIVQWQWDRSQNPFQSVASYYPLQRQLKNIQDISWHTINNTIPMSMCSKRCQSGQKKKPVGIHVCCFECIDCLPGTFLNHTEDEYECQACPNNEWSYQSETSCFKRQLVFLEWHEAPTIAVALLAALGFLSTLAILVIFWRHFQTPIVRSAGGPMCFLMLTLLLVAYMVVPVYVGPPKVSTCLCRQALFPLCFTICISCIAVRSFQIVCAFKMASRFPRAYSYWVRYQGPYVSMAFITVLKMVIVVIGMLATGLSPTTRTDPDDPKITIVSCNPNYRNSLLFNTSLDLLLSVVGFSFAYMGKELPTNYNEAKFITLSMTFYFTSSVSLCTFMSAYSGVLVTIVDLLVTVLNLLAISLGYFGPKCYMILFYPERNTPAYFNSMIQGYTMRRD
T1 sequence (Q7RTX0 21-852): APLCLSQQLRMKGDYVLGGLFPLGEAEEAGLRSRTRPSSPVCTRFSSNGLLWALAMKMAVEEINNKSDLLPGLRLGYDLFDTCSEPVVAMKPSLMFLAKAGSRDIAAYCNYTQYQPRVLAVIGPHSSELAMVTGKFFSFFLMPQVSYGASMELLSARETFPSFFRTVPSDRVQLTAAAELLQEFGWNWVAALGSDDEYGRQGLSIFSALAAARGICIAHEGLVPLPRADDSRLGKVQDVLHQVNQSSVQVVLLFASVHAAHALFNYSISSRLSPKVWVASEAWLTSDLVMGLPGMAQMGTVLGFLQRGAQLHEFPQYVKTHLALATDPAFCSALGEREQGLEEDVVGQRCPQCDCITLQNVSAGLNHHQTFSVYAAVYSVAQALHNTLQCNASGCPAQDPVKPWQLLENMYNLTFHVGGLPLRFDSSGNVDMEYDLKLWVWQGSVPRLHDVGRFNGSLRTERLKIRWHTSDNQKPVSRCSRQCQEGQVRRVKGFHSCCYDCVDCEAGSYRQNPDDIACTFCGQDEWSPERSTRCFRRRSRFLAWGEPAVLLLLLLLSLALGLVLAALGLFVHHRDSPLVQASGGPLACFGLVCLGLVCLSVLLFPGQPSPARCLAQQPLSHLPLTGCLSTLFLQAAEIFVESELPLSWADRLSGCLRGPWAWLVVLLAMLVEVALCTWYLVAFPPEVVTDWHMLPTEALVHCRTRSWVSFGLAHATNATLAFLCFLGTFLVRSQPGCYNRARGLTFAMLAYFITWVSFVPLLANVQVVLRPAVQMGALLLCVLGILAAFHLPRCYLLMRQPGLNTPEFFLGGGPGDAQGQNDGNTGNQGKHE

humans [1] = test system: humans
rats [2] = test system: rats
rats [3] = test system: rats; remark: listed apart in the source
humans [4] = test system: humans; remark: listed apart in the source
humans [5] = settings: instillation into the duodenum of humans
rats [6] = test system: rats; remark: listed apart in the source
[7] = test system: patients with jejunostomy

Q: With `C=C(C)C1CC=C(/C=N/O)CC1` (centres unmarked) [Perillartine (10), Perillartine] as the compound, how does the Sweetness/potency (sweet receptor) read?
A: Its Sweetness/potency is 370.

Q: For `C=C1C[C@@]23CC[C@H]4[C@@](C)(CCC[C@@]4(C)C(=O)O[C@@H]4O[C@H](CO)[C@@H](O)[C@H](O)[C@H]4O)[C@@H]2CC[C@]1(O[C@@H]1O[C@H](CO)[C@@H](O)[C@H](O[C@@H]2O[C@H](CO)[C@@H](O)[C@H](O)[C@H]2O)[C@H]1O[C@@H]1O[C@H](CO)[C@@H](O)[C@H](O)[C@H]1O)C3` [Rebaudioside A (4), Rebaudioside A], which “Gut hormones in the circulation” value (humans [1]) is on record?
A: The value was “no alterations”.

Q: For `N[C@@H](CCC(=O)O)C(=O)O` [glutamate], which Abdominal fat (rats [2]) is on record?
A: Its Abdominal fat is “reduced abdominal fat”.

Q: What about the Weight gain (rats [2]) of the same compound?
A: The Weight gain was “decreased weight gain”.

Q: What does the source list for `OCCN1C[C@H](O)[C@@H](O)[C@H](O)[C@H]1CO` [miglitol]?
A: Increase in GLP-1, interaction with administration of a DPP-IV inhibitor (rats [3]): synergistic; Post-prandial GLP-1 levels (humans [4]): increase

Q: Which Gut hormone release (humans [5]) does the source give for `OC[C@H]1O[C@H](O[C@]2(CCl)O[C@H](CCl)[C@@H](O)[C@@H]2O)[C@H](O)[C@@H](O)[C@H]1Cl` [sucralose] here?
A: The Gut hormone release was “no effect”.

Q: What about the Gut hormone release (rats [6]) of the same compound?
A: The Gut hormone release was “no effect”.

Q: For Dulcoside A [Dulcoside A (15)], which Sweetness/potency (sweet receptor) is on record?
A: Its Sweetness/potency is 30.

Q: Which “Gastric emptying of solids and liquids” value [7] does the source give for “GLP-2: gut hormone administered in patients with jejunostomy (HADGSFSDEMNTILDNLAARDFINWLIQTKITD; Glucagon-like peptide 2; UniProt P01275 146-178, looked up)” here?
A: Its value is “prolong”.

Q: And the “Intestinal absorption of energy and intestinal wet weight absorption” value [7]?
A: The value was “improve”.
